What was measured:
Assay type in all cases: in vivo
[1] = test system: Echinochloa crus-galli var. crus-galli; test: Test Example 3: herbicidal effect by foliage application, Wagner pot (symbol H); details: application herbicide amount 320 g/ha
Summary of the method: (§1)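 Plants sown in submerged alluvial soil (water depth 0.1–0.5 cm) in a 25–30 °C greenhouse and grown 14 days. An emulsion of the compound diluted in water to a set herbicide amount was sprayed uniformly on foliage. Effect on each plant scored 3 weeks after application.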

Amaranthus retroflexus [2] = test: Test Example 5: herbicidal effect by foliage application, plastic box (symbol N); details: 320 g/ha, 3 weeks after application
Summary of the method: (§2)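 Leaf-applied emulsion, water-diluted to a preset herbicide dose, on two-week-old seedlings raised in a 25° C. to 30° C. greenhouse; injury rated at 3 weeks using earlier criteria.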

rapeseed = test: Test Example 4: effect on crop by soil treatment (symbol g); details: application herbicide amount 320 g/ha
Summary of the method: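 Plants grew in a 25° C. to 30° C. greenhouse after spot-sowing of seeds, including beet, rapeseed, wheat and rice, into sterilized diluvial soil under roughly 1.5 cm of cover soil.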

Amaranthus retroflexus [3] = test: Test Example 4: herbicidal effect by soil treatment (symbol N); details: application herbicide amount 320 g/ha
Summary of the method: (§3)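 Seeds were sown in sterilized diluvial soil, covered with about 1.5 cm of soil, and the soil surface was sprayed with a water-diluted emulsion of the compound at a predetermined rate. Plants grew in a greenhouse at 25° C. to 30° C.; effects were scored visually 3 weeks after application.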

Lolium multiflorum Lam. = test: Test Example 4: herbicidal effect by soil treatment (symbol K); details: application herbicide amount 320 g/ha
Summary of the method: as §3

rice plant = test: Test Example 5: effect on crop by foliage application, plastic box (symbol b); details: 320 g/ha, 3 weeks after application
Summary of the method: (§4)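 Crop and weed seeds sown in spots in sterilized diluvial soil in plastic boxes and covered with about 1.5 cm soil. Plants raised in a greenhouse at 25° C. to 30° C. for foliar application.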

[4] = test system: Echinochloa crus-galli var. crus-galli; test: Test Example 4: herbicidal effect by soil treatment (symbol H); details: application herbicide amount 320 g/ha
Summary of the method: as §3

Leptochloa chinensis = test: Test Example 3: herbicidal effect by foliage application, Wagner pot (symbol D); details: application herbicide amount 320 g/ha
Summary of the method: as §1

Chenopodium album = test: Test Example 5: herbicidal effect by foliage application, plastic box (symbol O); details: 320 g/ha, 3 weeks after application
Summary of the method: as §2

Scirpus juncoides = test: Test Example 2: herbicidal activity, application during weed generation in submerged conditions (symbol B); details: Table 23; application herbicide amount 320 g/ha; grade 0-5 by criteria of Test Example 1
Summary of the method: (§5)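 Seeds sown in flooded alluvial soil (4 cm water) were grown in a 25-30° C greenhouse. At the one- to two-leaf stage, diluted emulsion of compound was applied to the water surface at a predetermined rate. Effect was scored 3 weeks later.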

[5] = test system: Echinochloa oryzacola Vasing.; test: Test Example 2: herbicidal activity, application during weed generation in submerged conditions (symbol A); details: Table 23; application herbicide amount 320 g/ha; grade 0-5 by criteria of Test Example 1
Summary of the method: as §5

Apera spica-venti = test: Test Example 4: herbicidal effect by soil treatment (symbol L); details: application herbicide amount 320 g/ha
Summary of the method: as §3

Avena fatua = test: Test Example 5: herbicidal effect by foliage application, plastic box (symbol I); details: 320 g/ha, 3 weeks after application
Summary of the method: as §2

Digitaria ciliaris [6] = test: Test Example 4: herbicidal effect by soil treatment (symbol F); details: application herbicide amount 320 g/ha
Summary of the method: as §3

beet = test: Test Example 5: effect on crop by foliage application, plastic box (symbol f); details: 320 g/ha, 3 weeks after application
Summary of the method: as §4

Abutilon theophrasti = test: Test Example 4: herbicidal effect by soil treatment (symbol M); details: application herbicide amount 320 g/ha
Summary of the method: as §3

wheat = test: Test Example 5: effect on crop by foliage application, plastic box (symbol e); details: 320 g/ha, 3 weeks after application
Summary of the method: as §4

Digitaria ciliaris [7] = test: Test Example 5: herbicidal effect by foliage application, plastic box (symbol F); details: 320 g/ha, 3 weeks after application
Summary of the method: as §2

| SMILES | herbicidal effect on H (Echinochloa crus-galli var. crus-galli), grade 0-5 [1] | N: Amaranthus retroflexus, herbicidal effect grade (Amaranthus retroflexus [2]) | g: rapeseed, effect on crop grade (rapeseed) | N: Amaranthus retroflexus, herbicidal effect grade (Amaranthus retroflexus [3]) | K: Lolium multiflorum Lam., herbicidal effect grade (Lolium multiflorum Lam.) | b: directly sowed rice plant, effect on crop grade (rice plant) | H: Echinochloa crus-galli var. crus-galli, herbicidal effect grade [4] | herbicidal effect on D (Leptochloa chinensis), grade 0-5 (Leptochloa chinensis) | O: Chenopodium album, herbicidal effect grade (Chenopodium album) | Herbicidal effect grade, B: Scirpus juncoides (Scirpus juncoides) | Herbicidal effect grade, A: Echinochloa oryzacola Vasing. [5] | L: Apera spica-venti, herbicidal effect grade (Apera spica-venti) | I: Avena fatua, herbicidal effect grade (Avena fatua) | F: Digitaria ciliaris, herbicidal effect grade (Digitaria ciliaris [6]) | f: beet, effect on crop grade (beet) | M: Abutilon theophrasti, herbicidal effect grade (Abutilon theophrasti) | e: wheat, effect on crop grade (wheat) | F: Digitaria ciliaris, herbicidal effect grade (Digitaria ciliaris [7]) |
| --- | --- | --- | --- | --- | --- | --- | --- | --- | --- | --- | --- | --- | --- | --- | --- | --- | --- | --- |
| CCC(CCC1CC(O)=C(c2c(C)cc(C)cc2C)C1=O)=NOC (mixture of isomers) [4-001] | 2 (Herbicidal ratio of 20% or higher and lower than 40%) | 0 (Herbicidal ratio of 5% or lower (almost no effect)) | 1 (Herbicidal ratio of 5% or higher and lower than 20%) | 0 (Herbicidal ratio of 5% or lower (almost no effect)) | 5 (Herbicidal ratio of 90% or more (almost completely withered)) | 4 (Herbicidal ratio of 70% or higher and lower than 90%) | 0 (Herbicidal ratio of 5% or lower (almost no effect)) | 3 (Herbicidal ratio of 40% or higher and lower than 70%) | 0 (Herbicidal ratio of 5% or lower (almost no effect)) | 0 (Herbicidal ratio of 5% or lower (almost no effect)) | 0 (Herbicidal ratio of 5% or lower (almost no effect)) | 5 (Herbicidal ratio of 90% or more (almost completely withered)) | 4 (Herbicidal ratio of 70% or higher and lower than 90%) | 2 (Herbicidal ratio of 20% or higher and lower than 40%) | 0 (Herbicidal ratio of 5% or lower (almost no effect)) | 0 (Herbicidal ratio of 5% or lower (almost no effect)) | 0 (Herbicidal ratio of 5% or lower (almost no effect)) | 3 (Herbicidal ratio of 40% or higher and lower than 70%) |
| CCc1cc(-n2cc(Cl)cn2)cc(C)c1C1=C(O)CC(CC(C)=NOC)C1=O (mixture of isomers) [6-005] | 5 (Herbicidal ratio of 90% or more (almost completely withered)) | 4 (Herbicidal ratio of 70% or higher and lower than 90%) | 0 (Herbicidal ratio of 5% or lower (almost no effect)) | 0 (Herbicidal ratio of 5% or lower (almost no effect)) | 5 (Herbicidal ratio of 90% or more (almost completely withered)) | 5 (Herbicidal ratio of 90% or more (almost completely withered)) | 5 (Herbicidal ratio of 90% or more (almost completely withered)) | 5 (Herbicidal ratio of 90% or more (almost completely withered)) | 3 (Herbicidal ratio of 40% or higher and lower than 70%) | 2 (Herbicidal ratio of 20% or higher and lower than 40%) | 5 (Herbicidal ratio of 90% or more (almost completely withered)) | 5 (Herbicidal ratio of 90% or more (almost completely withered)) | 5 (Herbicidal ratio of 90% or more (almost completely withered)) | 5 (Herbicidal ratio of 90% or more (almost completely withered)) | 0 (Herbicidal ratio of 5% or lower (almost no effect)) | 0 (Herbicidal ratio of 5% or lower (almost no effect)) | 4 (Herbicidal ratio of 70% or higher and lower than 90%) | 5 (Herbicidal ratio of 90% or more (almost completely withered)) |
| CC#Cc1cc(C)c(C2=C(O)CC(CC(C)=NOC)C2=O)c(CC)c1 (mixture of isomers) [6-006] | 5 (Herbicidal ratio of 90% or more (almost completely withered)) | 0 (Herbicidal ratio of 5% or lower (almost no effect)) | 4 (Herbicidal ratio of 70% or higher and lower than 90%) | 3 (Herbicidal ratio of 40% or higher and lower than 70%) | 5 (Herbicidal ratio of 90% or more (almost completely withered)) | 4 (Herbicidal ratio of 70% or higher and lower than 90%) | 5 (Herbicidal ratio of 90% or more (almost completely withered)) | 5 (Herbicidal ratio of 90% or more (almost completely withered)) | 0 (Herbicidal ratio of 5% or lower (almost no effect)) | 5 (Herbicidal ratio of 90% or more (almost completely withered)) | 5 (Herbicidal ratio of 90% or more (almost completely withered)) | 5 (Herbicidal ratio of 90% or more (almost completely withered)) | 1 (Herbicidal ratio of 5% or higher and lower than 20%) | 5 (Herbicidal ratio of 90% or more (almost completely withered)) | – | 4 (Herbicidal ratio of 70% or higher and lower than 90%) | 5 (Herbicidal ratio of 90% or more (almost completely withered)) | 3 (Herbicidal ratio of 40% or higher and lower than 70%) |
| CCc1cc(C)cc(C)c1C1=C(O)CC(CC(C)=NOC)C1=O (stereo not shown) [6-007] | 5 (Herbicidal ratio of 90% or more (almost completely withered)) | 0 (Herbicidal ratio of 5% or lower (almost no effect)) | – | 3 (Herbicidal ratio of 40% or higher and lower than 70%) | 5 (Herbicidal ratio of 90% or more (almost completely withered)) | 5 (Herbicidal ratio of 90% or more (almost completely withered)) | 5 (Herbicidal ratio of 90% or more (almost completely withered)) | 5 (Herbicidal ratio of 90% or more (almost completely withered)) | 0 (Herbicidal ratio of 5% or lower (almost no effect)) | 3 (Herbicidal ratio of 40% or higher and lower than 70%) | 5 (Herbicidal ratio of 90% or more (almost completely withered)) | 5 (Herbicidal ratio of 90% or more (almost completely withered)) | 3 (Herbicidal ratio of 40% or higher and lower than 70%) | 5 (Herbicidal ratio of 90% or more (almost completely withered)) | 0 (Herbicidal ratio of 5% or lower (almost no effect)) | 4 (Herbicidal ratio of 70% or higher and lower than 90%) | 5 (Herbicidal ratio of 90% or more (almost completely withered)) | 5 (Herbicidal ratio of 90% or more (almost completely withered)) |

Source: patent US11000033B2, “Ketone or oxime compound, and herbicide” (NISSAN CHEMICAL CORPORATION, priority 2014, dated 2021)
